Test results published in publication PMC8137473, “Preclinical trial of a MAP4K4 inhibitor to reduce infarct size in the pig: does cardioprotection in human stem cell-derived myocytes predict success in large mammals?” (Basic Research in Cardiology, 2021).

Columns and labels:
porcine model of MI = assay: efficacy study: hemodynamics and LV function; assay type: in vivo, swine; conditions: for 2-D ejection fraction / LV end-diastolic lumen surface / LV end-diastolic wall thickness (infarct region) / LV end-systolic lumen surface / LV end-systolic wall thickness (infarct region) / Systolic Wall thickening (infarct region): echocardiography; for DAP / HR / MAP / SAP: fluid-filled catheter
Experimental: (§1) Next, an efficacy study was performed, in adherence to published guidelines for rigor and reproducibility, to evaluate the postulated benefit of DMX-10001 in a large-mammal model of MI. Briefly, 36 closed-chest swine (41 ± 2 kg) were subjected to regional ischemia by occluding the left anterior descending coronary artery (LAD) distal to the first diagonal branch for 60 min, followed by 24 h of reperfusion. Treatment with DMX-10001 (60 mg/kg/h for 0.5 h, followed by 17 mg/kg/h for 23.5 h) versus the vehicle was initiated 20 min prior to reperfusion and continued for 1 day. After 2 h of reperfusion, animals were allowed to recover from anesthesia. At 24 h of reperfusion, the infarct area (IA), area of no-reflow (NR), and area at ischemic risk (AAR) were determined. Transthoracic short-axis B-mode echocardiograms and measurements of LV pressure and its first derivative (LVdP/dt) were obtained at baseline and at 24 h of reperfusion. LV pressure–volume measurements were obtained at 24 h of reperfusion. Heart-type fatty acid binding protein (hFABP) release was measured, as a biomarker that correlates with IS and NR in swine at least as well as cardiac troponin I [30].
A transthoracic short-axis B-mode echocardiogram (ZS3, Zonare Medical Systems, Mountain View, CA) was performed to determine LV contractile performance. LV pressure and its first derivative (LVdP/dt) were determined using a micro-manometer-tipped catheter (SPR-350S, Millar Inc., Houston, TX), before infarct induction and again before killing. Terminal LV pressure–volume measurements were also performed, using a 7F conductance catheter (CD Leycom, Hengelo, The Netherlands) advanced into the LV [32]. After calibration of the system, pressure–volume loops were recorded during a breath hold.
Hemodynamic and LV global function were recorded and digitized online using a three-channel data acquisition program (ATCODAS, Dataq Instruments Inc., Akron OH) and stored on a computer for off-line analysis with a program written in MATLAB (Mathworks Inc., Natick, MA). A minimum of 10 s was selected for analysis of the digitized hemodynamic signals. Pressure–volume-related data were recorded and stored on a computer for off-line analysis (CD Leycom, Hengelo, The Netherlands). Statistical significance (P < 0.05, two tailed) for changes was determined by two-way ANOVA (time point in protocol x treatment) for repeated measures, followed by post hoc testing with the Bonferonni multiple comparison test.

[1] = test system: heart-type fatty acid binding protein (hFABP); assay: efficacy study: plasma hFABP release (ELISA); assay type: in vivo, swine
Experimental: as §1, with “Transthoracic short-axis B-mode echocardiograms and measurements of LV pressure and its first derivative (LVdP/dt) were obtained at baseline and at 24 h of reperfusion. LV pressure–volume measurements were obtained at 24 h of reperfusion.” left out, “[30]. […] Levels of DMX-10001 and DMX-5804 were determined by liquid chromatography–mass spectrometry (Pharmidex, London, UK). Porcine hFABP was analyzed as described: plasma samples were thawed on ice, diluted 10 × using the standard diluent provided with the kit, and analyzed by enzyme-linked immunosorbent assays according to the manufacturer’s instructions (Life Diagnostics, West Chester, PA). […]” for “[30].”

[2] = Millar catheter, Day 1 Baseline
[3] = Millar catheter, Day 2 End of Reperfusion
[4] = conductance catheter, End of Reperfusion
[5] = Coronary artery occlusion 15 min
[6] = Coronary artery occlusion 40 min
[7] = Coronary artery occlusion 60 min

COCCOc1ccc(-c2cn(-c3ccccc3)c3ncn(COP(=O)(O)O)c(=O)c23)cc1 [DMX-10001]
LV dP/dtmax (porcine model of MI; [2]): 1830 mmHg/s | LV dP/dtmin (porcine model of MI; [2]): -2080 mmHg/s | LV dPdtP40 (porcine model of MI; [2]): 1640 mmHg/s | LV end-diastolic pressure (porcine model of MI; [2]): 8 mmHg | LV peak systolic pressure (porcine model of MI; [2]): 102 mmHg | tau (porcine model of MI; [2]): 34 ms | LV dP/dtmax (porcine model of MI; [3]): 920 mmHg/s | LV dP/dtmin (porcine model of MI; [3]): -1240 mmHg/s | LV dPdtP40 (porcine model of MI; [3]): 800 mmHg/s | LV end-diastolic pressure (porcine model of MI; [3]): 13 mmHg | LV peak systolic pressure (porcine model of MI; [3]): 78 mmHg | tau (porcine model of MI; [3]): 44 ms | 3-D ejection fraction (porcine model of MI; [4]): 34% | Cardiac output (porcine model of MI; [4]): 4.7 L/min | Heart rate (porcine model of MI; [4]): 109 beats/min | LV end-diastolic pressure (porcine model of MI; [4]): 10 mmHg | LV end-diastolic volume (porcine model of MI; [4]): 138 mL | LV end-systolic volume (porcine model of MI; [4]): 96 mL | LV peak-systolic pressure (porcine model of MI; [4]): 73 mmHg | Stroke volume (porcine model of MI; [4]): 45 mL/beat | tau (porcine model of MI; [4]): 28 ms | 2-D ejection fraction (porcine model of MI; Day 1 Baseline): 44% | LV end-diastolic lumen surface (porcine model of MI; Day 1 Baseline): 1843 mm^2 | LV end-diastolic wall thickness (infarct region) (porcine model of MI; Day 1 Baseline): 7.4 mm | LV end-systolic lumen surface (porcine model of MI; Day 1 Baseline): 1034 mm^2 | LV end-systolic wall thickness (infarct region) (porcine model of MI; Day 1 Baseline): 10.7 mm | Systolic Wall thickening (infarct region) (porcine model of MI; Day 1 Baseline): 49% | 2-D ejection fraction (porcine model of MI; Day 2 End of Reperfusion): 25% | LV end-diastolic lumen surface (porcine model of MI; Day 2 End of Reperfusion): 1916 mm^2 | LV end-diastolic wall thickness (infarct region) (porcine model of MI; Day 2 End of Reperfusion): 8.5 mm | LV end-systolic lumen surface (porcine model of MI; Day 2 End of Reperfusion): 1435 mm^2 | LV end-systolic wall thickness (infarct region) (porcine model of MI; Day 2 End of Reperfusion): 8.7 mm | Systolic Wall thickening (infarct region) (porcine model of MI; Day 2 End of Reperfusion): 3% | effect on hemodynamic and LV functional end-points after ischemia–reperfusion (porcine model of MI; efficacy study): neither worsened nor enhanced | DAP (porcine model of MI; Baseline): 75 ± 15 mmHg | HR (porcine model of MI; Baseline): 124 ± 33 bpm | MAP (porcine model of MI; Baseline): 89 ± 16 mmHg | SAP (porcine model of MI; Baseline): 107 ± 14 mmHg | DAP (porcine model of MI; [5]): 76 ± 28 mmHg | HR (porcine model of MI; [5]): 89 ± 40 bpm | MAP (porcine model of MI; [5]): 91 ± 30 mmHg | SAP (porcine model of MI; [5]): 110 ± 34 mmHg | DAP (porcine model of MI; [6]): 58 ± 16 mmHg | HR (porcine model of MI; [6]): 78 ± 31 bpm | MAP (porcine model of MI; [6]): 71 ± 17 mmHg | SAP (porcine model of MI; [6]): 88 ± 18 mmHg | DAP (porcine model of MI; [7]): 52 ± 10 mmHg | HR (porcine model of MI; [7]): 71 ± 21 bpm | MAP (porcine model of MI; [7]): 65 ± 11 mmHg | SAP (porcine model of MI; [7]): 82 ± 13 mmHg | DAP (porcine model of MI; Reperfusion (day 1) 10 min): 61 ± 13 mmHg | HR (porcine model of MI; Reperfusion (day 1) 10 min): 99 ± 22 bpm | MAP (porcine model of MI; Reperfusion (day 1) 10 min): 74 ± 13 mmHg | SAP (porcine model of MI; Reperfusion (day 1) 10 min): 91 ± 13 mmHg | DAP (porcine model of MI; Reperfusion (day 1) 30 min): 63 ± 11 mmHg | HR (porcine model of MI; Reperfusion (day 1) 30 min): 120 ± 31 bpm | MAP (porcine model of MI; Reperfusion (day 1) 30 min): 73 ± 11 mmHg | SAP (porcine model of MI; Reperfusion (day 1) 30 min): 88 ± 11 mmHg | DAP (porcine model of MI; Reperfusion (day 1) 120 min): 62 ± 9 mmHg | HR (porcine model of MI; Reperfusion (day 1) 120 min): 94 ± 26 bpm | MAP (porcine model of MI; Reperfusion (day 1) 120 min): 73 ± 9 mmHg | SAP (porcine model of MI; Reperfusion (day 1) 120 min): 87 ± 10 mmHg | DAP (porcine model of MI; Reperfusion (day 2) 22h 40 min): 56 ± 13 mmHg | HR (porcine model of MI; Reperfusion (day 2) 22h 40 min): 112 ± 24 bpm | MAP (porcine model of MI; Reperfusion (day 2) 22h 40 min): 67 ± 13 mmHg | SAP (porcine model of MI; Reperfusion (day 2) 22h 40 min): 80 ± 13 mmHg | DAP (porcine model of MI; Reperfusion (day 2) 23h 40 min): 62 ± 17 mmHg | HR (porcine model of MI; Reperfusion (day 2) 23h 40 min): 103 ± 14 bpm | MAP (porcine model of MI; Reperfusion (day 2) 23h 40 min): 75 ± 18 mmHg | SAP (porcine model of MI; Reperfusion (day 2) 23h 40 min): 91 ± 20 mmHg | plasma level of hFABP ([1]; 60 min of reperfusion): 120 ± 19 ng/mL | plasma level of hFABP ([1]; baseline): 8 ± 2 ng/mL
